Measurements published in patent US4777167A, “Pharmaceutically useful substituted thiacycloalkeno [3,2-b]pyridines, compositions and method of use” (Ortho Pharmaceutical Corporation, priority 1987, dated 1988).
Values joined by “and” are separate entries in the source; they are usually repeats but may differ in a detail not shown here. Equal values may be shown once. Read-outs that look alike come from different tables or passages of the source. Each block holds one molecule with its values, some of them ahead of it.

How the values were obtained:
calcium channels = biological target: T1, calcium channels (Oryctolagus cuniculus, UniProt P15381); test: Inhibition of nitrendipine binding (3H-nitrendipine displacement, rabbit heart membranes); parameters: species or system rabbit (New Zealand white); conditions: 90 min, 4° C.
T1 construct: from tissue; host or cells: heart of female New Zealand white rabbits, membrane fraction (42,000×g pellet)
T1 sequence (P15381 whole entry, other chains not shown): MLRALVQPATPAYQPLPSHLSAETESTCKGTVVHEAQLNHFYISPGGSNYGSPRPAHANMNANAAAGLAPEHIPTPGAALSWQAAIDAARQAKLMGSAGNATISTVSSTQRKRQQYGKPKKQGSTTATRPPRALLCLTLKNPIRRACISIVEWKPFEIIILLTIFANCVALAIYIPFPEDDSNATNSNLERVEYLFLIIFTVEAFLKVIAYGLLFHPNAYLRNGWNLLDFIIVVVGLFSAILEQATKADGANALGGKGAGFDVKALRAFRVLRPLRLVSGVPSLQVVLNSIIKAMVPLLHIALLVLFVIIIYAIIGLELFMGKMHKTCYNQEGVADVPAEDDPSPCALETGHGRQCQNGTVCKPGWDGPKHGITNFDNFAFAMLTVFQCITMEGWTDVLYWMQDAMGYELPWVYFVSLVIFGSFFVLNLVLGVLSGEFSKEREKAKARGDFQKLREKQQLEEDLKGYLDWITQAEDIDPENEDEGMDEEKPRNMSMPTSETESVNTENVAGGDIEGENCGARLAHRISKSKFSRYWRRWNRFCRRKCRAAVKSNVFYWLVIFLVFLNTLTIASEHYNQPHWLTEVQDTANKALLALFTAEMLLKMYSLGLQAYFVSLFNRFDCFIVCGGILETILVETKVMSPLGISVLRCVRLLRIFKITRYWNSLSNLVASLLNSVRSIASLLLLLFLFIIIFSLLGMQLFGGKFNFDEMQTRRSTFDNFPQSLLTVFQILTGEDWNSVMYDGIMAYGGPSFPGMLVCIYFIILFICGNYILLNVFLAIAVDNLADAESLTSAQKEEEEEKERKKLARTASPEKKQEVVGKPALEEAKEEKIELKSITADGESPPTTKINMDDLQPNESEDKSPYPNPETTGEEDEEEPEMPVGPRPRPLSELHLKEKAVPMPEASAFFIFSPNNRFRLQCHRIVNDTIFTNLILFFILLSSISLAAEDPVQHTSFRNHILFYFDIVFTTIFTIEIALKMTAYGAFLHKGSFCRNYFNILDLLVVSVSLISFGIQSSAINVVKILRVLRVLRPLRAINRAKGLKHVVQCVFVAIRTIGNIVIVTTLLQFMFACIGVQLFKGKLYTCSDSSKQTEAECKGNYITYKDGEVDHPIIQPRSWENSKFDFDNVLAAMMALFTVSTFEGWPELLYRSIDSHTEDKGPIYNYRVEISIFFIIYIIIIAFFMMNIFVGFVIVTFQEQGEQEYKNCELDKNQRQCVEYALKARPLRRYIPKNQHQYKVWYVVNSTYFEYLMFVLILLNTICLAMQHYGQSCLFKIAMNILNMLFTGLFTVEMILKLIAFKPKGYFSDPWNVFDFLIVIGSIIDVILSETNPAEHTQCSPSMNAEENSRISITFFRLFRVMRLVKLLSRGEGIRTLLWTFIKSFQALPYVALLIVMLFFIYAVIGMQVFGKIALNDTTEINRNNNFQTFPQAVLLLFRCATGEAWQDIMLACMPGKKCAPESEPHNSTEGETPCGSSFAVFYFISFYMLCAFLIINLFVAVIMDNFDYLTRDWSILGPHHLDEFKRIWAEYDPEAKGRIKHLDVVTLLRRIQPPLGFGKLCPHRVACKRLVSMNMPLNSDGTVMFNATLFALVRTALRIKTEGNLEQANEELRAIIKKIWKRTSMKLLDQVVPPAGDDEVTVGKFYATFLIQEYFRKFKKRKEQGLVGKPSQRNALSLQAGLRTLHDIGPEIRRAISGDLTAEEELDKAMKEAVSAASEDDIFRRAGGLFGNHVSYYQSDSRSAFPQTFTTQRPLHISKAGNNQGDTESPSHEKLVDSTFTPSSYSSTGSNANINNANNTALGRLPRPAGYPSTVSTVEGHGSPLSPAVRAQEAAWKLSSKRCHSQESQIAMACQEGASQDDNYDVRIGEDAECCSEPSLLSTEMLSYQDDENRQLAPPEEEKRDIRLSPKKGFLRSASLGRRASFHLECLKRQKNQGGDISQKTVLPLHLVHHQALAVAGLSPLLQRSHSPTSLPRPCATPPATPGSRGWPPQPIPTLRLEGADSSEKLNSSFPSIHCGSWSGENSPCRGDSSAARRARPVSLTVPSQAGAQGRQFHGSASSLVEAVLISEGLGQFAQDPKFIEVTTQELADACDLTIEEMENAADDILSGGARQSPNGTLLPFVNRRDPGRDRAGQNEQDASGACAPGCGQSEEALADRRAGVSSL
T1 sequence (P13806 27-960 partner limits assumed, other chains not shown): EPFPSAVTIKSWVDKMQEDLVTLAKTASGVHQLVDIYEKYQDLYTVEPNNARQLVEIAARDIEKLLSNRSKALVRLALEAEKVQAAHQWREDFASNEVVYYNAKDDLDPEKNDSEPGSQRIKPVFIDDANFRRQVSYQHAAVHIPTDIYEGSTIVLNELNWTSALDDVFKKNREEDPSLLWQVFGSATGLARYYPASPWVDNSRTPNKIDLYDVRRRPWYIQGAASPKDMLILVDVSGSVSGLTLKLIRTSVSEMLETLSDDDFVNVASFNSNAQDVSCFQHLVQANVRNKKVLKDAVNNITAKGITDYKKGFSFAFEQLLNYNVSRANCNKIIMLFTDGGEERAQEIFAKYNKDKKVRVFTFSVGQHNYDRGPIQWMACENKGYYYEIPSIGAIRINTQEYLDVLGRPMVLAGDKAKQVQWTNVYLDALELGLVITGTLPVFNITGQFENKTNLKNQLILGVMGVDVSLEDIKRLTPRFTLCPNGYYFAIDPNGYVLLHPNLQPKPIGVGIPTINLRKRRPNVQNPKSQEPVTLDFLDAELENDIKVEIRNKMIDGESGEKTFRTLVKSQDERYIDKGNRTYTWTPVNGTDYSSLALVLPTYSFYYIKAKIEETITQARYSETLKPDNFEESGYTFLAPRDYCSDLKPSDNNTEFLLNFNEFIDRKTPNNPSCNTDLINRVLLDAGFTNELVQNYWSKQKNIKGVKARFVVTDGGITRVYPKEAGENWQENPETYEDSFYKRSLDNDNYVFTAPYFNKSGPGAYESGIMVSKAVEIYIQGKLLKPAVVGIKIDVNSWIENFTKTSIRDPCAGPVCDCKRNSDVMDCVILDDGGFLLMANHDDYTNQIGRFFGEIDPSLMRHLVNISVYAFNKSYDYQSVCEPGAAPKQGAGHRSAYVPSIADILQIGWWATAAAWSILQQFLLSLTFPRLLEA
T1 sequence (P13806 961-1106 partner limits assumed, other chains not shown): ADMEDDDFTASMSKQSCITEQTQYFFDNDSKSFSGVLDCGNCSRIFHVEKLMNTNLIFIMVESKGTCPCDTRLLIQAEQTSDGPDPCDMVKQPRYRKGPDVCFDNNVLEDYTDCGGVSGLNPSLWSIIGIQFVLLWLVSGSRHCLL
Protocol: (1) Inhibition of nitrendipine binding to calcium channels.
The assay for inhibition of nitrendipine binding follows the following procedure:
Female, New Zealand white rabbits (1-2 kg) are sacrificed by cervical dislocation, and the heart is immediately removed, cleaned, and chopped into small pieces. The tissue is homogenized in 5× volume of 0.05M Hepes buffer, pH 7.4. The homogenate is centrifuged at 4000×g for 10 minutes; the supernatant is recentrifuged at 42,000×g for 90 minutes. The resulting membrane pellet is resuspended (0.7 ml/g weight) in 0.05M Hepes, pH 7.4 and stored at -70° C. until used. Each tube of the binding assay contains ^3 H- nitrendipine (0.05-0.50 nM), buffer, membranes (0.10 ml), and test compound in a total volume of 1.0 ml. After 90 minutes at 4° C., the bound nitrendipine is separated from the unbound by filtration on Whatman GF/C fibers. After rinsing, the filters are dried and counted in a liquid scintillation counter.
Non-specific binding of ^3 H-nitrendipine (that amount bound in the presence of excess unlabelled nitrendipine) is subtracted from the total bound to obtain specifically bound radiolabeled nitrendipine. The amount of specifically bound nitrendipine in the presence of a test compound is compared to that amount bound in the absence of a compound. A percent displacement (or inhibition) can then be obtained.

trachealis muscle = test: Inhibition of calcium dependent smooth muscle contraction (KCl-challenged trachea); type: cell-based, dog; conditions: Canis lupus familiaris; for inhibition at 2 µM: concentration 2.0 μM; for inhibition at 10 µM: concentration 10.0 μM; for inhibition at 0.5 µM: concentration 0.5 μM; for inhibition at 0.1 µM: concentration 0.1 μM; for inhibition at 0.2 µM: concentration 0.2 μM
Protocol: The test for inhibition of calcium dependent smooth muscle contraction is determined according to the following procedure:
Trachea from dogs sacrificed by excess KCl injection are stored overnight at 4° C. in oxygenated Krebs-Henseleit buffer. Tracheal rings, one cartilage segment wide (5-10 mm), are cut starting from the bronchial end. After cutting the cartilage, the trachealis muscle tissue is suspended in oxygenated Krebs-Henseleit buffer at 37° C. in a 25 ml tissue bath. After a 60 minutes equilibration period, the tissues are challenged with 10 μM carbachol. After 5 minutes the tissues are rinsed and allowed to rest 50 minutes. The tissues are then challenged with 50 mM KCl and, after 30 minutes, the contractions are quantitated. The tissues are then rinsed and reequilibrated for 50 minutes. Test compounds are then added for 10 minutes, and the tissue is rechallenged with 50 mMKcl. After 30 minutes, the contraction is recorded and used to determine the % inhibition of control.
The percent inhibition of smooth muscle contraction is calculated from response data before and after drug treatment. [formula] A rating is assigned to the compound depending upon the percent inhibition obtained.

Aorta Muscle = test: Inhibition of aorta muscle contraction; type: cell-based; conditions: Table II; concentration 0.1 μM
[1] = Table I, read-out: Inhibition of Ca2+ dependent smooth muscle contraction % Inhibition
[2] = Table II, read-out: Inhibition Trachea Muscle Contraction % Inhibition

SMILES: CC1=C(C(=O)OCCN(C)CCc2ccccc2)C(c2cccc(Cl)c2Cl)C2=C(CCCCCS2(=O)=O)N1 (stereo not shown)
IC50 (calcium channels; Table II): 149 nM
inhibition at 1 µM (trachealis muscle; Table II, concentration 1.0 μM): 57%
inhibition at 0.1 µM (Aorta Muscle): 67%

SMILES: CCOC(=O)C1=C(C)NC2=C(C1c1c(F)c(F)c(F)c(F)c1F)S(=O)(=O)CC2 (stereo not shown) [2 CH2 CH3 C6 F5]
IC50 (calcium channels; Table I): 560 nM
inhibition at 2 µM (trachealis muscle; [1]): 48%

SMILES: COC(=O)C1=C(C)NC2=C(C1c1c(F)c(F)c(F)c(F)c1F)S(=O)(=O)CC2 (stereo not shown) [2 CH3 C6 F5]
IC50 (calcium channels; Table I): 150 nM
inhibition at 2 µM (trachealis muscle; [1]): 47%

SMILES: CC1=C(C(=O)OCc2ccccc2)C(c2ccccc2[N+](=O)[O-])C2=C(CCCS2(=O)=O)N1 (stereo not shown) [3 CH2 C6 H5 2-NO2C6 H4]
IC50 (calcium channels; Table I): 3400 nM
inhibition at 10 µM (trachealis muscle; [1]): 69%

SMILES: COC(=O)C1=C(C)NC2=C(C1c1c(F)c(F)c(F)c(F)c1F)S(=O)(=O)CCC2 (stereo not shown) [3 CH3 C6 F5]
IC50 (calcium channels; Table I): 400 nM
inhibition at 0.5 µM (trachealis muscle; [1]): 46%

SMILES: CC1=C(C(=O)OC2CCCSC2)C(c2cccc(Cl)c2Cl)C2=C(CCCCS2(=O)=O)N1 (stereo not shown) [4 2,3-Cl2C6 H3 drawing 14]
inhibition at 2 µM (trachealis muscle; [2]): 54%

SMILES: CC1=C(C(=O)OCCN(C)Cc2ccccc2)C(c2cccc(Cl)c2Cl)C2=C(CCCCS2(=O)=O)N1 (stereo not shown) [4 2,3-Cl2C6 H3, N-Benzyl-N-methylaminoethyl 9-(2,3-dichlorophenyl)-2,4,5,6,9-hexahydro-7-methyl-1,1-dioxothiacyclohepteno[3,2-b]pyridine-8-carboxylate]
IC50 (calcium channels; Table II): 100 nM
inhibition at 0.1 µM (trachealis muscle; [2]): 62%
inhibition at 0.1 µM (Aorta Muscle): 83%

SMILES: CC1=C(C(=O)OCCN(C)Cc2ccccc2)C(c2cc(F)ccc2F)C2=C(CCCCS2(=O)=O)N1 (stereo not shown) [4 2,5-F2C6 H3]
IC50 (calcium channels; Table II): 120 nM
inhibition at 0.1 µM (trachealis muscle; [2]): 43%
inhibition at 0.1 µM (Aorta Muscle): 47%

SMILES: CC1=C(C(=O)OCCN(C)Cc2ccccc2)C(c2ccccc2OC(F)F)C2=C(CCCCS2(=O)=O)N1 (stereo not shown) [4 2-OCHF2C6 H4, N-Benzyl-N-methylaminoethyl 9-(2-cifluoromethoxyphenyl)-2,4,5,6,9-hexahydro-7-methyl-1,1-dioxothiacyclohepteno[3,2-b]pyridine-8-carboxylate]
IC50 (calcium channels; Table II): 72 nM
inhibition at 0.1 µM (trachealis muscle; [2]): 54%

SMILES: CC1=C(C(=O)OC2CCCSC2)C(c2c(F)c(F)c(F)c(F)c2F)C2=C(CCCCS2(=O)=O)N1 (stereo not shown) [4 C6 F5 drawing 13]
inhibition at 2 µM (trachealis muscle; [2]): 53%

SMILES: CC1=C(C(=O)OCCN(C)Cc2ccccc2)C(c2c(F)c(F)c(F)c(F)c2F)C2=C(CCCCS2(=O)=O)N1 (stereo not shown) [4 CH2 CH2 NCH3 CH2 C6 H5 C6 F5, N-Benzyl-N-methylaminoethyl 9-(2,3,4,5,6-pentafluorophenyl)-2,3,4,5,6,9-hexahydro-7-methyl-1,1-dioxothiacyclohepteno[3,2-b]pyridine-8-carboxylate]
IC50 (calcium channels; Table I): 35 nM
inhibition at 0.2 µM (trachealis muscle; [1]): 74%

SMILES: CCOC(=O)C1=C(C)NC2=C(C1c1c(F)c(F)c(F)c(F)c1F)S(=O)(=O)CCCC2 (stereo not shown) [4 CH2 CH3 C6 F5, Ethyl 9-(2,3,4,5,6-pentafluorophenyl)-2,3,4,5,6,9-hexahydro-7-methyl-1,1-dioxothiacyclohepteno[3,2-b]pyridine-8-carboxylate]
IC50 (calcium channels; Table I): 28 nM
inhibition at 0.5 µM (trachealis muscle; [1]): 95%

SMILES: CC1=C(C(=O)OCCN(C)Cc2ccccc2)C(c2ccccc2[N+](=O)[O-])C2=C(CCCCCS2(=O)=O)N1 (stereo not shown) [5 2-NO2C 6 H4 CH2 CH2 NCH3 CH2 C6 H5]
inhibition at 0.1 µM (trachealis muscle; [2]): 69%
inhibition at 0.1 µM (Aorta Muscle): 73%

SMILES: COC(=O)C1=C(C)NC2(O)CCS(=O)(=O)C2C1c1ccccc1[N+](=O)[O-] (stereo not shown) [Methyl 2,3,3a,4,7,7a-hexahydro-3a-hydroxy-5-methyl-7-(2-nitrophenyl)-1,1-dioxo-thieno[3,2-b]pyridine-6-carboxylate]
inhibition at 2 µM (trachealis muscle; [1]): 26%

SMILES: CCOC(=O)C1=C(C)NC2=C(C1c1cccnc1SC)S(=O)(=O)CCCCC2 (stereo not shown) [drawing 8 CH2 CH3]
inhibition at 0.3 µM (trachealis muscle; Table II, concentration 0.3 μM): 79%
inhibition at 0.1 µM (Aorta Muscle): 42%

Second part, led by results:

IC50 (calcium channels; Table I): 1000 nM
SMILES: CC1=C(C(=O)OCCN(C)Cc2ccccc2)C(c2cccc([N+](=O)[O-])c2)C2=C(CCS2(=O)=O)N1 (stereo not shown) [2 CH2 CH2 NCH3 CH2 C6 H5 3-NO2C6 H4, N-Benzyl-N-methylaminoethyl 2,3,4,7-tetrahydro-5-methyl-7-(3-nitrophenyl)-1,1-dioxothieno[3,2-b]pyridine-6-carboxylate]
inhibition at 5 µM (trachealis muscle; Table I, concentration 5.0 μM, read-out: Inhibition of Ca2+ dependent smooth muscle contraction % Inhibition): 65%

IC50 (calcium channels; Table I): 1350 nM
SMILES: COC(=O)C1=C(C)NC2=C(C1c1ccccc1[N+](=O)[O-])S(=O)(=O)CC2 (stereo not shown) [2 CH3 2-NO2C6 H4, Methyl 2,3,4,7,-tetrahydro-5-methyl-7-(2-nitrophenyl)-1,1-dioxothieno[3,2-b]pyridine-6-carboxylate]
inhibition at 2 µM (trachealis muscle; [1]): 63%

IC50 (calcium channels; Table I): 2000 nM
SMILES: COC(=O)C1=C(C)NC2=C(C1c1cccc(C#N)c1)S(=O)(=O)CC2 (stereo not shown) [2 CH3 3-CNC6 H4]

IC50 (calcium channels; Table I): 930 nM
SMILES: COC(=O)C1=C(C)NC2=C(C1c1cccc(Cl)c1)S(=O)(=O)CC2 (stereo not shown) [2 CH3 3-ClC6 H4]

IC50 (calcium channels; Table I): 700 nM
SMILES: COC(=O)C1=C(C)NC2=C(C1c1cccc([N+](=O)[O-])c1)S(=O)(=O)CC2 (stereo not shown) [2 CH3 3-NO2C6 H4]
inhibition at 10 µM (trachealis muscle; [1]): 76%

IC50 (calcium channels; Table I): 1850 nM
SMILES: CC1=C(C(=O)OCCN(C)Cc2ccccc2)C(c2cccc([N+](=O)[O-])c2)C2=C(CCCS2(=O)=O)N1 (stereo not shown) [3 CH2 CH2 NCH3 CH2 C6 H5 3-NO2C6 H4, N-Benzyl-N-methyl-2-aminoethyl 2,3,4,8-tetrahydro-6-methyl-8-(3-nitrophenyl)-1,1-dioxo-5H-thiopyrano[3,2-b]pyridine-7-carboxylate Hemioxalate]
inhibition at 2 µM (trachealis muscle; [1]): 46%

IC50 (calcium channels; Table I): 1500 nM
SMILES: CCOC(=O)C1=C(C)NC2=C(C1c1ccccc1[N+](=O)[O-])S(=O)(=O)CCC2 (stereo not shown) [3 CH2 CH3 2-NO2C6 H4]
inhibition at 10 µM (trachealis muscle; [1]): 75%

IC50 (calcium channels; Table I): 170 nM
SMILES: CCOC(=O)C1=C(C)NC2=C(C1c1cccc([N+](=O)[O-])c1)S(=O)(=O)CCC2 (stereo not shown) [3 CH2 CH3 3-NO2C6 H4, Ethyl 3,4,5,8-tetrahydro-6-methyl-8-(3-nitrophenyl)-1,1-dioxo-2H-thio-pyrano[3,2-b]pyridine-7-carboxylate]
inhibition at 10 µM (trachealis muscle; [1]): 69%

IC50 (calcium channels; Table I): 890 nM
SMILES: COC(=O)C1=C(C)NC2=C(C1c1ccccc1[N+](=O)[O-])S(=O)(=O)CCC2 (stereo not shown) [3 CH3 2-NO2C6 H4]
inhibition at 10 µM (trachealis muscle; [1]): 84%

IC50 (calcium channels; Table I): 160 nM
SMILES: COC(=O)C1=C(C)NC2=C(C1c1cccc([N+](=O)[O-])c1)S(=O)(=O)CCC2 (stereo not shown) [3 CH3 3-NO2C6 H4, Methyl 3,4,5,8,-tetrahydro-6-methyl-8-(3-nitrophenyl)-1,1-dioxo-2H-thiopyrano-[3,2-b]pyridine-7-carboxylate]
inhibition at 10 µM (trachealis muscle; [1]): 57%

IC50 (calcium channels; Table I): 130 nM
SMILES: CC1=C(C(=O)OCCN(C)Cc2ccccc2)C(c2cccc([N+](=O)[O-])c2)C2=C(CCCCS2(=O)=O)N1 (stereo not shown) [4 CH2 CH2 NCH3 CH2 C6 H5 3-NO2C6 H4, N-Benzyl-N-methylaminoethyl 2,4,5,6,9-hexahydro-7-methyl-9-(3-nitrophenyl)-1,1-dioxothiacyclohepteno[3,2-b]pyridine-8-carboxylate]
inhibition at 0.2 µM (trachealis muscle; [1]): 68%

IC50 (calcium channels; Table I): 27 nM and 39 nM
SMILES: COC(=O)C1=C(C)NC2=C(C1c1cccc([N+](=O)[O-])c1)S(=O)(=O)CCCC2 (stereo not shown) [4 CH3 3-NO2C6 H4]
inhibition at 2 µM (trachealis muscle; [1]): 94%

IC50 (calcium channels; Table I): 44 nM
SMILES: CCOC(=O)C1=C(C)NC2=C(C1c1cccc([N+](=O)[O-])c1)S(=O)(=O)CCCC2 (stereo not shown) [4 CH 2 CH3 3-NO2C6 H4, Ethyl 2,3,4,5,6,9-hexahydro-7-methyl-9-(3-nitrophenyl)-1,1-dioxothiacyclohepteno[3,2-b]pyridine-8-carboxylate]
inhibition at 2 µM (trachealis muscle; [1]): 96%

IC50 (calcium channels; Table I): 5.5 nM
SMILES: CCOC(=O)C1=C(C)NC2=C(C1c1cccc([N+](=O)[O-])c1)S(=O)(=O)CCCCC2 (stereo not shown) [5 CH2 CH3 3-NO2C6 H4]
inhibition at 0.1 µM (trachealis muscle; [1]): 71%

IC50 (calcium channels; Table I): 270 nM
SMILES: CCOC(=O)C1=C(C)NC2=CCCCCS(=O)(=O)C2C1c1cccc([N+](=O)[O-])c1 (stereo not shown) [Ethyl 3,4,5,7,10,10a-hexahydro-8-methyl-10-(3-nitrophenyl)-1,1-dioxo-2H-thiacycloocteno[3,2-b]pyridine-9-carboxylate]
inhibition at 2 µM (trachealis muscle; [1]): 53%
